Assay results published in ChEMBL document CHEMBL1149374, “Synthesis and biological evaluation of gem-diamine 1-N-iminosugars related to L-iduronic acid as inhibitors of heparan sulfate 2-O-sulfotransferase” (Bioorg Med Chem Lett, 2006).

Target: T1, Heparan sulfate 2-O-sulfotransferase 1 (Cricetulus longicaudatus) (UniProt O08889)
T1 sequence (whole entry): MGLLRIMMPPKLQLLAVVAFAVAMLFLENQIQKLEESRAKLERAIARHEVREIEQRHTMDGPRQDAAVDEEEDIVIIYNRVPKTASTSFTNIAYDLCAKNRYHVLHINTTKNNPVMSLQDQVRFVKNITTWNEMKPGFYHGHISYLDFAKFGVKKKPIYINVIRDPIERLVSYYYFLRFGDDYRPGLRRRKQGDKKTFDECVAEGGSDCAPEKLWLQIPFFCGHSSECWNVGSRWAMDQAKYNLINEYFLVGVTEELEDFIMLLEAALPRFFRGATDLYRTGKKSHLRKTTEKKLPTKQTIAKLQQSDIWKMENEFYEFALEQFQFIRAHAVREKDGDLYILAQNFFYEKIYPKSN
Assay: Inhibition of sulfate transfer by HS 2-O-ST from CHO cells
Assay type: functional, cell-based
Settings: concentration not given here

CCC(CC)C(=O)N1C[C@@H](C(=O)O)[C@H](N=C(N)N)[C@H](O)[C@H]1NC(C)=O
inhibition: 84%

CC(=O)N[C@H]1NC[C@@H](C(=O)O)[C@H](N=C(N)N)[C@@H]1O
inhibition: 76%
